Data as given in publication PMC6934184, “Selective DNA-PKcs inhibition extends the therapeutic index of localized radiotherapy and chemotherapy” (The Journal of Clinical Investigation, 2019).

Target: T1, MAP3K2 (MEKK2) (Homo sapiens, UniProt Q9Y2U5)
T1 construct: purchased Thermo Fisher Scientific (Life Technologies) SelectScreen
Assay: SelectScreen LanthaScreen
Assay type: binding
Conditions: read-out: % displacement
In short: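 SelectScreen broad panel; activity (Z'LYTE, Adapta) plus binding formats. ATP: Km app for CSF1R Z'LYTE; 10 for CAMK1 Adapta. Readout = % per kinase.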

T1 sequence (Q9Y2U5 whole entry): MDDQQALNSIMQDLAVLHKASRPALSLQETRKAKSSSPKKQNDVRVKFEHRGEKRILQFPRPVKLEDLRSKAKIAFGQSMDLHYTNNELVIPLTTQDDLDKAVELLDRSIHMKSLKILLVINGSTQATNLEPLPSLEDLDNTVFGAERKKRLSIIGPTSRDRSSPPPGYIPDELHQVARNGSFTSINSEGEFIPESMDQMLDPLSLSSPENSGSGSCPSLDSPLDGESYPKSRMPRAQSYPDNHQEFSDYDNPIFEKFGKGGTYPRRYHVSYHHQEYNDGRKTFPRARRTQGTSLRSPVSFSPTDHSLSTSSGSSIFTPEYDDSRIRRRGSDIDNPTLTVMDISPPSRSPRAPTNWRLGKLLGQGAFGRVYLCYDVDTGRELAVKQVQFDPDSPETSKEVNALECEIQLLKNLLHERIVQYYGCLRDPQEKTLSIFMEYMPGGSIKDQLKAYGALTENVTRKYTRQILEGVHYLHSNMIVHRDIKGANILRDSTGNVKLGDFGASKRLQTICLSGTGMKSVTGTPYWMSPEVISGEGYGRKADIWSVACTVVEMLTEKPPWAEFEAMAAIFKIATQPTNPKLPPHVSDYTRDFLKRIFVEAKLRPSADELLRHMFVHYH

Which inhibition at 1 µM does the source give for CN(C(=O)CN1CCOCC1)c1ccc2sc3c(-c4cccc5c(=O)cc(N6CC7CCC(C6)O7)oc45)cccc3c2c1 [NU5455] here?
The inhibition at 1 µM was 0.1%.
